From publication PMC3514653 (Neuromodulation : journal of the International …, 2012)

Columns and labels:
[1] = dog, in vivo
[2] = dog; intrathecal; cited from earlier work
Male beagle dogs = settings: dog, in vivo

inulin [[^3H]Inulin]
T1/2 α in LCSF [1]: 9.6 min

O=C(c1ccccc1)c1ccc2n1CCC2C(=O)O (stereo not drawn) [ketorolac]
T1/2 (CSF elimination) in this model [2]: 54 min

CSCC[C@@H]1NC(=O)[C@H](CC(C)C)NC(=O)[C@H](CCCNC(=N)N)NC(=O)[C@H](CO)NC(=O)[C@@H]2CSSC[C@@H]3NC(=O)[C@H](CO)NC(=O)CNC(=O)[C@H]([C@@H](C)O)NC(=O)[C@H](CSSC[C@H](N)C(=O)N[C@@H](CCCCN)C(=O)NCC(=O)N[C@@H](CCCCN)C(=O)NCC(=O)N[C@@H](C)C(=O)N[C@@H](CCCCN)C(=O)N2)NC(=O)[C@H](CSSC[C@@H](C(N)=O)NC(=O)[C@H](CCCCN)NC(=O)CNC(=O)[C@H](CO)NC(=O)[C@H](CCCNC(=N)N)NC3=O)NC(=O)[C@H](CC(=O)O)NC(=O)[C@H](Cc2ccc(O)cc2)NC1=O [Ziconotide]
Decreased arousal and activity (remained responsive), dogs affected (Male beagle dogs): All 5 dogs
